Measured values published in ChEMBL document CHEMBL4765332, “A multi-scale systems pharmacology approach uncovers the anti-cancer molecular mechanism of Ixabepilone” (Eur J Med Chem, 2020).
Active and inactive are the calls of the source. No cut-off for these calls is given here.

Legend:
[1] = target: T1, Apoptosis regulator Bcl-2 (Homo sapiens, UniProt P10415); assay: Upregulation of Bcl-2 phosphorylation at Ser70 residue in human BT549 cells at 0.1 microM incubated for 12 to 36 hrs by western blot analysis; format: cell-based; conditions: BT-549, time 12-36 hrs
MDA-MB-231 [2] = assay: Effect on Beclin1 expression in human MDA-MB-231 cells at 0.2 uM measured after 48 hrs by western blot analysis; format: functional, cell-based
MDA-MB-231 [3] = assay: Cytotoxicity against human MDA-MB-231 cells transfected with non-targeting siRNA at 0.1 to 1.6 uM measured after 48 hrs by CCK8 assay; format: functional, cell-based; conditions: dose 0.1-1.6 µM
MDA-MB-231 [4] = assay: Induction of autophagy in human MDA-MB-231 cells assessed as increase in LC3-II level at 0.1 uM by Western blot analysis; format: functional, cell-based; conditions: time 12-48 hrs, TDE = time-dependent effect
Mus musculus = assay: Downregulation of Ki67 expression in tumor tissue of BALB/c mouse xenografted with human MDA-MB-231 cells at 3 mg/kg, ip administered with compound every other day and with 10 mg/kg, ip CQ every day by immunohistochemical staining; format: functional, organism-based
U-251 = assay: Cytotoxicity against human U251 cells at 0.1 to 1.6 uM measured after 48 hrs in presence of 20 uM autophagy inhibitor, chloroquine by CCK8 assay; format: functional, cell-based; conditions: dose 0.1-1.6 µM
HepG2 [5] = assay: Cytotoxicity against human HepG2 cells at 0.1 to 1.6 uM measured after 48 hrs in presence of 20 uM autophagy inhibitor, chloroquine by CCK8 assay; format: functional, cell-based; conditions: dose 0.1-1.6 µM
BT-549 [6] = assay: Induction of apoptosis in human BT-549 cells assessed as late apoptotic cells incubated for 48 hrs by AnnexinV-FITC and propidium iodide staining based flow cytometry analysis(reference value: 0.599%); format: functional
MCF7 [7] = assay: Cytotoxicity against human MCF-7 cells at 0.1 to 1.6 uM measured after 48 hrs in presence of 20 uM autophagy inhibitor, chloroquine by CCK8 assay; format: functional, cell-based; conditions: dose 0.1-1.6 µM
[8] = target: T1, Apoptosis regulator Bcl-2; assay: Upregulation of Bcl-2 phosphorylation at Ser70 residue in human MCF7 cells at 0.05 to 0.4 microM incubated for 48 hrs by western blot analysis; format: cell-based; conditions: dose 0.05-0.4 µM
[9] = target: T1, Apoptosis regulator Bcl-2; assay: Induction of Bcl-2 phosphorylation-mediated protein degradation in human MDA-MB-231 cells assessed as decrease in Bcl-2 expression at 0.1 to 0.2 uM pretreated with proteasome inhibitor, MG132 for 2 hrs followed by incubation with compound for 48 hrs by western blot analysis; format: cell-based; conditions: dose 0.1-0.2 µM
BT-549 [10] = assay: Induction of apoptosis in human BT-549 cells assessed as viable cells incubated for 48 hrs in presence of 20 uM autophagy inhibitor, CQ by AnnexinV-FITC and propidium iodide staining based flow cytometry analysis(reference value: 94.6%); format: functional
[11] = target: T1, Apoptosis regulator Bcl-2; assay: Induction of Bcl-2 phosphorylation-mediated protein degradation in human BT549 cells assessed as decrease in Bcl-2 expression at 0.1 uM by western blot analysis; format: cell-based; conditions: BT-549, time 12-48 hrs, TDE = time-dependent effect
BT-549 [12] = assay: Induction of apoptosis in human BT-549 cells assessed as necrotic cells incubated for 48 hrs by AnnexinV-FITC and propidium iodide staining based flow cytometry analysis(reference value: 0.145%); format: functional
HepG2 [13] = assay: Induction of autophagy in human HepG2 cells assessed as increase in LC3-II expression at 0.4 uM measured after 12 to 48 hrs by western blot analysis; format: functional, cell-based; conditions: time 12-48 hrs
BT-549 [14] = assay: Induction of autophagy in human BT-549 cells assessed increase in LC3-II level at 0.1 to 0.2 uM preincubated with 20 uM autophagosome-lysosome fusion inhibitor, chloroquine for 1 hr followed by incubation with compound for 48 hrs by western blot analysis; format: functional, cell-based; conditions: dose 0.1-0.2 µM
MCF7 [15] = assay: Induction of autophagy in human MCF7 cells assessed as increase in LC3-II level at 0.1 uM by Western blot analysis; format: functional, cell-based; conditions: time 12-48 hrs, TDE = time-dependent effect
MDA-MB-231 [16] = assay: Cytotoxicity against human MDA-MB-231 cells at 0.1 to 1.6 uM measured after 48 hrs in presence of 2 mM autophagy inhibitor, 3-methyladenine by CCK8 assay; format: functional, cell-based; conditions: dose 0.1-1.6 µM
MDA-MB-231 [17] = assay: Cytotoxicity against human MDA-MB-231 cells transfected with Beclin1 siRNA at 0.1 to 1.6 uM measured after 48 hrs by CCK8 assay; format: functional, cell-based; conditions: dose 0.1-1.6 µM
BT-549 [18] = assay: Induction of apoptosis in human BT-549 cells assessed as increase in cleaved caspase 3 level pretreated with 20 uM autophagy inhibitor, CQ for 1 hr followed by incubation with drug for 48 hrs by western blot analysis; format: functional, cell-based
MDA-MB-231 [19] = assay: Induction of apoptosis in human MDA-MB-231 cells assessed as increase in cleaved caspase 3 level pretreated with 20 uM autophagy inhibitor, CQ for 1 hr followed by incubation with drug for 48 hrs by western blot analysis; format: functional, cell-based
MDA-MB-231 [20] = assay: Cytotoxicity against human MDA-MB-231 cells at 0.1 to 1.6 uM measured after 48 hrs in presence of 20 uM autophagy inhibitor, chloroquine by CCK8 assay; format: functional, cell-based; conditions: dose 0.1-1.6 µM
MDA-MB-231 [21] = assay: Antitumor activity against human MDA-MB-231 cells xenografted in BALB/c mouse assessed as tumor growth inhibition at 3 mg/kg, ip administered every other day measured every 3 days by vernier caliper analysis; format: functional, organism-based
BT-549 [22] = assay: Induction of apoptosis in human BT-549 cells assessed as necrotic cells incubated for 48 hrs in presence of 20 uM autophagy inhibitor, CQ by AnnexinV-FITC and propidium iodide staining based flow cytometry analysis(reference value: 0.86%); format: functional
BT-549 [23] = assay: Induction of apoptosis in human BT-549 cells assessed as early apoptotic cells incubated for 48 hrs in presence of 20 uM autophagy inhibitor, CQ by AnnexinV-FITC and propidium iodide staining based flow cytometry analysis(reference value: 1.94%); format: functional
BT-549 [24] = assay: Induction of apoptosis in human BT-549 cells assessed as viable cells incubated for 48 hrs by AnnexinV-FITC and propidium iodide staining based flow cytometry analysis(reference value: 98.6%); format: functional
[25] = target: T1, Apoptosis regulator Bcl-2; assay: Induction of Bcl-2 phosphorylation-mediated protein degradation in human MDA-MB-231 cells assessed as decrease in Bcl-2 expression at 0.1 uM by western blot analysis; format: cell-based; conditions: time 12-48 hrs, TDE = time-dependent effect
[26] = target: T1, Apoptosis regulator Bcl-2; assay: Binding affinity to human recombinant Bcl-2 expressed in Escherichia coli by Surface plasmon resonance assay
BT-549 [27] = assay: Induction of apoptosis in human BT-549 cells assessed as early apoptotic cells incubated for 48 hrs by AnnexinV-FITC and propidium iodide staining based flow cytometry analysis(reference value: 0.609%); format: functional
[28] = target: T1, Apoptosis regulator Bcl-2; assay: Induction of Bcl-2 phosphorylation-mediated protein degradation in human BT549 cells assessed as decrease in Bcl-2 expression measured after 48 hrs by western blot analysis; format: cell-based; conditions: BT-549, dose 0.05-0.4 µM
BT-549 [29] = assay: Induction of apoptosis in human BT-549 cells transfected with Beclin1 siRNA assessed as increase in cleaved PARP level measured after 48 hrs by western blot analysis; format: functional, cell-based

T1 sequence (P10415 whole entry): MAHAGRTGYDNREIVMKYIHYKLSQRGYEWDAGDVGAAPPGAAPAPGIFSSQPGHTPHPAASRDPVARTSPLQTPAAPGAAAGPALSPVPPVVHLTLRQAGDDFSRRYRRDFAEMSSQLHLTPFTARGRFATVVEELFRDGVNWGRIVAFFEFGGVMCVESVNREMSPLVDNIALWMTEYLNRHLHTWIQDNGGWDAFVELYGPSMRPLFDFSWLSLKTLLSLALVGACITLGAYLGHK

SMILES: C/C(=C\c1csc(C)n1)[C@@H]1C[C@@H]2O[C@]2(C)CCC[C@H](C)[C@H](O)[C@@H](C)C(=O)C(C)(C)[C@@H](O)CC(=O)N1 [IXABEPILONE]
- Activity [1]: Active
- Activity (MDA-MB-231 [2]): inactive
- Activity (MDA-MB-231 [3]): Active
- Activity (MDA-MB-231 [4]): Tde
- inhibition (Mus musculus): Active
- Activity (U-251): Active
- Activity (HepG2 [5]): Active
- Activity (BT-549 [6]): 10%
- Activity (MCF7 [7]): Active
- Activity [8]: Active
- Activity [9]: inactive
- Activity (BT-549 [10]): 74.3%
- Activity [11]: Tde
- Activity (BT-549 [12]): 1.47%
- Activity (HepG2 [13]): Active
- Activity (BT-549 [14]): Active
- Activity (MCF7 [15]): Tde
- Activity (MDA-MB-231 [16]): Active
- Activity (MDA-MB-231 [17]): Active
- Activity (BT-549 [18]): Active
- Activity (MDA-MB-231 [19]): Active
- Activity (MDA-MB-231 [20]): Active
- Activity (MDA-MB-231 [21]): Active
- Activity (BT-549 [22]): 3.53%
- Activity (BT-549 [23]): 4.2%
- Activity (BT-549 [24]): 86.3%
- Activity [25]: Tde
- Kd [26]: 337 nM
- Activity (BT-549 [27]): 2.17%
- Activity [28]: Dose-dependent effect
- Activity (BT-549 [29]): Active
